Experimental data reported in US20160030364A1, “Therapeutic Compositions and Uses Thereof” (MANUKA HEALTH NEW ZEALAND LIMITED, priority 2013, published 2016).

Tests used:
[1] = test system: human colon cancer cell line (HCT-116); assay: MTT anti-proliferative assay, HCT-116 (Examples 3-12); type: cell-based
Description: 5-phenylpenta-2,4-dienoic acid was assessed for its ability to modulate the viability and proliferation of human colorectal adenocarcinoma cells (DLD-1); human colon cancer cell line (HCT-116); human gastric carcinoma cell line (NCI-N87); and human oesophageal squamous cell carcinoma cell line (KYSE-30) as assessed by the MTT assay. The positive control, 5-fluorouracil (5-FU) was included at three concentrations; in addition to an unsupplemented cell control as a negative control in the study. The 5-phenylpenta-2,4-dienoic acid was a genuine standard with chemical structure confirmed by NMR and MS.
The four human gastrointestinal carcinoma cell lines were revived from cryostorage and cultured in the presence of the test and reference samples. An MTT assay was then performed on the cultures to determine the effect of the samples on the cell viability and proliferation.
The test sample 5-phenylpenta-2,4-dienoic acid, and all other test samples in Examples 4-12 (except tectochrysln) were Initially dissolved in pure ethanol to a concentration of around 13.35 mg/ml. Tectochrysin was initially dissolved in triethylene glycol mono-methyl ether to the same concentration. Working solutions were then prepared from the stock solutions by dilution to 15% ethanol/Hanks Balanced Salt Solution (ETOH)/HBSS to a concentration of 2 mg/mL solids. In the assay the final concentration of the samples was 200 μg/ml with a final EtOH concentration of 1.5%. Final concentrations of test compounds and propolis prepared as above are as noted in Example 3.
• 1. Human colorectal adenocarcinoma cells (ATCC CCI-221, DLD-1)(ATCC, Bethesda, Md., USA) • 2. Human gastric carcinoma cells (ATCC CRL-5822, NCI-N87)(ATCC, Bethesda, Md., USA) • 3. Human oesophageal squamous cell carcinoma (ECACC, KYSE-30)(Sigma Aldrich, Auckland, NZ) • 4. Human colon carcinoma cells (ECACC HCT-116)(Sigma Aldrich, Auckland, NZ) • 5. Penicillin-streptomycin solution: 10000 units/ml penicillin, 10 mg/ml streptomycin in 0.9% NaCl (Sigma Cat #P-0781). Stored at −20° C. • 6. For DLD-1 cells: DMEM culture medium (Invitrogen Cat #12100-046). Stored at 4° C. • 7. For NCI-N87 cells: RPMI-1640 medium modified to contain 2 mM L-glutamine, 10 mM HEPES, 1 mM sodium pyruvate, 4500 mg/L glucose, and 1500 mg/L sodium bicarbonate (Sigma R6504). Stored at 4° C. • 8. For KYSE-410 cells: RPMI-1640 medium modified to contain 2 mM L-glutamine (Sigma R6504). Stored at 4° C. • 9. For HCT-116 cells: McCoy's 5A medium modified to contain 2 mM L-glutamine (Sigma M48792). Stored at 4° C. • 10. Trypsin-EDTA solution: 0.25% Trypsin/EDTA, Invitrogen Cat#15400054 (×10 in stock). • 11. Phosphate buffered saline (PBS) (Prepared by TBL). • 12. Hanks Balanced Salt Solution (HBSS). (GIBCO Cat No. 14185-052). Stored at 4° C. • 13. Foetal Bovine Serum (GIBCO Cat #10091-148). Stored at −20° C. • 14. MTT Reagent: 100 mg/vial, (SIGMA Cat. No. M-2128) dissolved in PBS at 10 mg/ml and stored at −20° C. 5 mg/ml MTT solution will be prepared in PBS and stored at 4° C. as working solution. • 15. MTT lysis buffer: 10% sodium dodecyl sulphate (SDS)/45% Dimethyl Formamide (20 g SDS will be dissolved in 100 ml of double-distilled water (DDW), and 90 ml of Dimethyl Formamide will be added to the SDS solution). The pH will be adjusted to 4.7 by glacial acetic acid, and DDW added up to a final volume of 200 ml. • 16. 5-Fluorouracil (5-FU), (Sigma Cat. No. F-6627). Three working solutions will be prepared at 19.5 μg/ml. 6.5 μg/ml and 1.95 μg/ml dissolved in 15% Ethanol/HBSS. Final concentrations will be 1.95 μg/ml (15 μM), 0.65 μg/ml (5 μM) and 0.195 μg/ml (1.5 μM).
The medium for the propagation of the each of the cells lines is given above. Each medium was prepared following the ATCC/ECACC instructions and supplemented with penicillin-streptomycin solution (10 ml per litre). FBS (at 10%) was added just before use.
• 1. […]

[2] = test system: human oesophageal squamous cell carcinoma cell line (KYSE-30); assay: MTT anti-proliferative assay, KYSE-30 (Examples 3-13); type: cell-based
[3] = Homo sapiens, HCT-116, 48 h, 200 μg/ml

For `O=C1C[C@@H](c2ccccc2)Oc2cc(O)cc(O)c21` [Pinocembrin, reference compound], the “% stim.” value ([1]; 200 μg/ml, 48 hours) was 0%, the “Mean OD (570 nm)” value ([1]; 200 μg/ml, 48 hours) was 0.0045 and the inhibition at 200 µg/mL [1, 3] was 99.1%. The “% inhibition” value ([2]; Example 13, 100 μg/ml) was 50.26%, the “Mean OD (570 nm)” value ([2]; Example 13, 100 μg/ml) was 0.1668 and the inhibition at 100 µg/mL ([2]; Homo sapiens, KYSE-30, Example 13, 100 μg/ml) was 50.3%.
`O=c1[nH]cc(F)c(=O)[nH]1` [Sample 5-FU, 5-fluorouracil, reference compound] was tested, and the inhibition at 0.195 µg/mL ([1]; Homo sapiens, HCT-116, 48 h, 0.195 μg/ml) was 33.9%, the inhibition at 0.65 µg/mL ([1]; Homo sapiens, HCT-116, 48 h, 0.65 μg/ml) was 54% and the inhibition at 1.95 µg/mL ([1]; Homo sapiens, HCT-116, 48 h, 1.95 μg/ml) was 57.3%. It also gave an inhibition at 0.65 µg/mL ([2]; Homo sapiens, KYSE-30, 48 h, Examples 3-12, 0.65 μg/ml, 48 hours) of 39.4% and an inhibition at 1.95 µg/mL ([2]; Homo sapiens, KYSE-30, 48 h, Examples 3-12, 1.95 μg/ml, 48 hours) of 47.5%.
In the case of `COc1cc(O)c2c(=O)cc(-c3ccccc3)oc2c1` [Tectochrysin, tectochrysin], the “% inhibition” value ([1]; 200 μg/ml, 48 hours) was 90.1%.
In the case of `O=C(O)/C=C/c1ccc(O)cc1` [p-coumaric acid, para-coumaric acid, reference compound], the “% stim.” value ([1]; 200 μg/ml, 48 hours) was 2.6%, the “Mean OD (570 nm)” value ([1]; 200 μg/ml, 48 hours) was 0.5216 and the inhibition at 200 µg/mL [1, 3] was 0%.
